From US11786492B2, “Therapeutic agent for phosphodiesterase inhibition and its related disorders” (Novalead Pharma Inc, priority 2017, dated 2023)

Tests used:
[1] = tested on: Imiquimod induced psoriasis in BALB/c mice; assay: Imiquimod induced psoriasis model in Balb/c mice
Procedure: BALB/c mice (Sex: Female, Age: 7-8 Weeks) were used for induction of psoriasis using IMQ. Topical application of imiquimod (IMQ) in mice can induce and exacerbate psoriasis closely resembling human psoriasis. […] 3%, 4% and 5% and positive control of Tenovate (Clobetasol) 0.05% cream. In all 63 mg cream containing 5% of IMQ was applied to dorsal area (shaved back) and right ear for 8 days. Topical formulations from Example 7 were used during this experiment.
The parameters investigated were ear thickness change, % inhibition of ear inflammation, Psoriatic Area Severity Index (PASI). Histopathology was performed of right ear and dorsal skin by H & E staining. The biomarker in this study was inflammatory cytokine IL-23 analyzed by ELISA obtained from tissue lysate of ear region where IMQ and doses were applied.

[2] = tested on: Human IL-6; assay: IL-6 release from stimulated PBMCs, ELISA; assay type: cell-based; details: 1 μM; LPS 100 ng/mL, 18 hrs
Procedure: (§1) Fresh human blood from healthy volunteer was collected in anticoagulant (5 mM) ethylene diamine tetra acetic acid (EDTA) containing tubes. The growth medium used was RPMI-1640 medium (with 3% FBS) and incubated at 37° C. for 60 mins in a 5% CO2 incubator with vehicle used as 1% DMSO. The cell viability was checked at various time points using Alamar blue and fluorescence readings were taken at excitation of 544 nm and emission of 590 nm.
(§2) PBMCs were stimulated with different stimulators as follows: • a. Cells were exposed to stimulator LPS at 100 ng/mL for 18 hrs to stimulate TNF-α, IL-6, IFN-γ, IL10, IL-1β • b. Cells were exposed to stimulator IFN-γ+LPS at 100 ng/mL+1 μg/mL for 18 hrs to stimulate IL-12 • c. Cells were exposed to stimulator PMA+Ionomycin at 50 ng/mL+1 μg/mL for 18 hrs to stimulate IL-23, IL-22, IL-17A, IL-17F
(§3) After 18 hrs supernatants were collected and centrifuged to remove any cell debris and aliquots were used for ELISA.

[3] = tested on: Human IL-12; assay: IL-12 release from stimulated PBMCs, ELISA; assay type: cell-based; details: 1 μM; IFN-γ+LPS, 18 hrs
Procedure: as §1, §2, §3

[4] = tested on: Human IL-22; assay: IL-22 release from stimulated PBMCs, ELISA; assay type: cell-based; details: 1 μM; PMA+Ionomycin, 18 hrs
Procedure: as §1, §2, §3

[5] = tested on: Human IL-1β; assay: IL-1β release from stimulated PBMCs, ELISA; assay type: cell-based; details: 1 μM; LPS 100 ng/mL, 18 hrs
Procedure: as §1, §2, §3

[6] = tested on: Human IFN-γ; assay: IFN-γ release from stimulated PBMCs, ELISA; assay type: cell-based; details: 1 μM; LPS 100 ng/mL, 18 hrs
Procedure: as §1, §2, §3

[7] = tested on: HaCaT cells; assay: Cell viability of HaCaT cells, Alamar blue; assay type: cell-based, human; details: 3 μM
Procedure: (§4) HaCaT cells were maintained in T-75 cm2 flask in Dulbecco's modified Eagle medium supplemented with FBS (10%), L-glutamine (2 mM), penicillin (100 ug/ml), streptomycin (100 ug/ml) at 37° C. in 5% CO2 incubator. Cell growth was maintained to 70-80% confluence for seeding and vehicle used was 1% DMSO. The cell viability was checked at various time points using Alamar blue and fluorescence readings were taken at excitation of 544 nm and emission of 590 nm.

[8] = tested on: Human IL-10; assay: IL-10 release from stimulated PBMCs, ELISA; assay type: cell-based; details: 1 μM; LPS 100 ng/mL, 18 hrs
Procedure: as §1, §2, §3

[9] = tested on: Human TNF-α; assay: TNF-α release from stimulated PBMCs, ELISA; assay type: cell-based; details: 1 μM; LPS 100 ng/mL, 18 hrs
Procedure: as §1, §2, §3

[10] = tested on: IL-6; assay: IL-6 release from stimulated HaCaT cells, ELISA; assay type: cell-based, human; details: 1 μM; IFN-γ 50 ng/mL, 48 hrs
Procedure: as §4
(§5) HaCaT cells were stimulated with different stimulators as follows: • a. Cells were exposed to stimulator LPS at 1 μg/mL for 48 hrs to stimulate IL-1β • b. Cells were exposed to stimulator IFN-γ at 50 ng/mL for 48 hrs to stimulate TNF-α, IL-6
(§6) After 48 hrs supernatants were collected and centrifuged to remove any cell debris and aliquots were used for ELISA.

[11] = tested on: Human IL-17F; assay: IL-17F release from stimulated PBMCs, ELISA; assay type: cell-based; details: 1 μM; PMA+Ionomycin, 18 hrs
Procedure: as §1, §2, §3

[12] = tested on: human PBMCs; assay: Cell viability of human PBMCs, Alamar blue; assay type: cell-based; details: 3 μM
Procedure: as §1

[13] = tested on: TNF-α; assay: TNF-α release from stimulated HaCaT cells, ELISA; assay type: cell-based, human; details: 1 μM; IFN-γ 50 ng/mL, 48 hrs
Procedure: as §4, §5, §6

[14] = tested on: Human IL-17A; assay: IL-17A release from stimulated PBMCs, ELISA; assay type: cell-based; details: 1 μM; PMA+Ionomycin, 18 hrs
Procedure: as §1, §2, §3

C[C@H]1C[C@H]2[C@@H]3CCC4=CC(=O)C=C[C@]4(C)[C@@]3(F)[C@@H](O)C[C@]2(C)[C@@]1(O)C(=O)CCl [Clobetasol]
% Body Weight Change ([1]; 0.05% cream, positive control): −16.9%
% inhibition of Ear inflamn. ([1]; 0.05% cream, positive control): 86.9%
Histopathology Scores Epidermal Thickness ([1]; 0.05% cream, positive control): 4.3 ± 0.3
Histopathology Scores Hyperkeratosis ([1]; 0.05% cream, positive control): 1.0 ± 0.0
Histopathology Scores Rete Peg Prolifern. ([1]; 0.05% cream, positive control): 0.3 ± 0.3
PASI score ([1]; 0.05% cream, positive control): 4.83 ± 2.3
Spleen weight ([1]; 0.05% cream, positive control, Day 9): 49.3 ± 10.3 mg
IL23 Levels ([1]; 0.05% cream, positive control, ear tissue lysate): 64.1 ± 7.4 pg/mL
Spleen weight vs disease control (in words) ([1]; Niclosamide 2%, Nitazoxanide 3% and 5%, Clobetasol 0.05%, Day 9): reduction in spleen weight was observed to be significant
Body weight change (in words) ([1]; all tested doses, Clobetasol Day 7 to Day 9): significant body weight change
IL-23 level in ear tissue homogenates (in words) ([1]; different doses): reduces IL-23 levels below that of normal control

C[C@@H]1C[C@H]2[C@@H]3CCC4=CC(=O)C=C[C@]4(C)[C@@]3(F)[C@@H](O)C[C@]2(C)[C@@]1(O)C(=O)CO [Dexamethasone]
Human IL-6 concentration [2]: 3052 pg/mL
Human IL-12 concentration [3]: 163 pg/mL
Human IL-22 concentration [4]: 2496 pg/mL
Human IL-1β concentration [5]: 174 pg/mL
Human IFN-γ concentration [6]: 165 pg/mL
% Viability (±S.E.M.) ([7]; 24 hrs): 46 ± 3%
% Viability (±S.E.M.) ([7]; 48 hrs): 18 ± 2%
% Viability (±S.E.M.) ([7]; 72 hrs): 8 ± 0%
Human IL-10 concentration [8]: 710 pg/mL
Human TNF-α concentration [9]: 325 pg/mL
IL-6 Conc. [10]: 33 ± 1 pg/mL
Human IL-17F concentration [11]: 322 pg/mL
% Viability (±S.E.M.) ([12]; 24 hrs): 82 ± 6%
% Viability (±S.E.M.) ([12]; 48 hrs): 78 ± 1%
% Viability (±S.E.M.) ([12]; 72 hrs): 81 ± 1%
TNF-α Conc. [13]: 3.2 ± 0 pg/mL
Human IL-17A concentration [14]: 186 pg/mL
